According to patent US4442044A, “Process for preparing monoesters and diesters of N-alkyl substituted amino methyl phosphonic acid” (priority 1983, dated 1984):

Columns and labels:
Test in all cases: post-emergent herbicidal activity, greenhouse
Type in all cases: in vivo
Sugar Beet = settings: Table II
Outline: (§1)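 Post-emergence foliar spray at tabulated application rates, using aliquots of a 1.0% stock in acetone, THF or water plus ~0.4% emulsifier, applied to 2–3-week-old greenhouse plants. Plant injury was rated relative to controls roughly two and four weeks after treatment.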

Wild Buckwheat = settings: Table II
Outline: as §1

Yellow Nutsedge = settings: Table I, 4 WAT
Outline: as §1

Downy Brome = tested on: Downy Brome
Outline: as §1

Panicum Spp = settings: Table II
Outline: as §1

Hemp Sesbania = settings: Table II
Outline: as §1

Sorghum = settings: Table II
Outline: as §1

Cocklebur = tested on: Cocklebur
Outline: as §1

Johnsongrass = settings: Table I, 4 WAT
Outline: as §1

Crabgrass = settings: Table II, 4 WAT
Outline: as §1

Canada Thistle = settings: Table I, 4 WAT
Outline: as §1

Morningglory = tested on: Morningglory
Outline: as §1

Soybean = settings: Table II
Outline: as §1

Barnyardgrass = tested on: Barnyardgrass
Outline: as §1

Quackgrass = settings: Table I, 4 WAT
Outline: as §1

Wheat = settings: Table II
Outline: as §1

Rice = settings: Table II
Outline: as §1

Smartweed = tested on: Smartweed
Outline: as §1

Lambsquarters = tested on: Lambsquarters
Outline: as §1

Velvetleaf = tested on: Velvetleaf
Outline: as §1

Measured: post-emergent herbicidal activity index

CCOC(=O)CNCP(=O)(O)OCC(Cl)(Cl)Cl [Example 27, glycine, N-[[hydroxy(2,2,2-trichloroethoxy)-phosphinyl]methyl]-, ethyl ester]
0 (0-24% control): Sugar Beet; 2 WAT, 0.01 kg/h | Sugar Beet; 2 WAT, 0.06 kg/h | Wild Buckwheat; 2 WAT, 0.01 kg/h | Wild Buckwheat; 2 WAT, 0.06 kg/h | Yellow Nutsedge; 5.6 kg/h | Downy Brome; Table I, 4 WAT, 5.6 kg/h | Downy Brome; Table I, 4 WAT, 11.2 kg/h | Downy Brome; Table II, 2 WAT, 0.01 kg/h | Downy Brome; Table II, 2 WAT, 0.06 kg/h | Panicum Spp; 2 WAT, 0.01 kg/h | Panicum Spp; 2 WAT, 0.06 kg/h | Hemp Sesbania; 2 WAT, 0.01 kg/h | Hemp Sesbania; 2 WAT, 0.06 kg/h | Sorghum; 2 WAT, 0.01 kg/h | Sorghum; 2 WAT, 0.06 kg/h | Cocklebur; Table II, 2 WAT, 0.01 kg/h | Cocklebur; Table II, 2 WAT, 0.06 kg/h | Johnsongrass; 11.2 kg/h | Morningglory; Table II, 2 WAT, 0.01 kg/h | Morningglory; Table II, 2 WAT, 0.06 kg/h | Soybean; 2 WAT, 0.01 kg/h | Soybean; 2 WAT, 0.06 kg/h | Barnyardgrass; Table II, 2 WAT, 0.01 kg/h | Barnyardgrass; Table II, 2 WAT, 0.06 kg/h | Wheat; 2 WAT, 0.01 kg/h | Wheat; 2 WAT, 0.06 kg/h | Rice; 2 WAT, 0.01 kg/h | Rice; 2 WAT, 0.06 kg/h | Smartweed; Table II, 2 WAT, 0.01 kg/h | Smartweed; Table II, 2 WAT, 0.06 kg/h | Lambsquarters; Table II, 2 WAT, 0.01 kg/h | Lambsquarters; Table II, 2 WAT, 0.06 kg/h | Velvetleaf; Table II, 2 WAT, 0.01 kg/h | Velvetleaf; Table II, 2 WAT, 0.06 kg/h
1 (25-49% control): Hemp Sesbania; 4 WAT, 0.28 kg/h | Canada Thistle; 5.6 kg/h | Quackgrass; 5.6 kg/h | Quackgrass; 11.2 kg/h | Lambsquarters; Table II, 4 WAT, 0.28 kg/h | Velvetleaf; Table I, 4 WAT, 5.6 kg/h | Velvetleaf; Table II, 4 WAT, 0.28 kg/h | Velvetleaf; Table II, 4 WAT, 1.12 kg/h | Velvetleaf; Table II, 4 WAT, 5.6 kg/h
2 (50-74% control): Sugar Beet; 4 WAT, 0.28 kg/h | Sugar Beet; 4 WAT, 1.12 kg/h | Wild Buckwheat; 4 WAT, 0.28 kg/h | Wild Buckwheat; 4 WAT, 1.12 kg/h | Wild Buckwheat; 4 WAT, 5.6 kg/h | Yellow Nutsedge; 11.2 kg/h | Hemp Sesbania; 4 WAT, 1.12 kg/h | Sorghum; 4 WAT, 0.28 kg/h | Sorghum; 4 WAT, 1.12 kg/h | Cocklebur; Table I, 4 WAT, 5.6 kg/h | Cocklebur; Table I, 4 WAT, 11.2 kg/h | Cocklebur; Table II, 4 WAT, 0.28 kg/h | Cocklebur; Table II, 4 WAT, 1.12 kg/h | Johnsongrass; 5.6 kg/h | Canada Thistle; 11.2 kg/h | Morningglory; Table I, 4 WAT, 5.6 kg/h | Morningglory; Table I, 4 WAT, 11.2 kg/h | Morningglory; Table II, 4 WAT, 0.28 kg/h | Morningglory; Table II, 4 WAT, 1.12 kg/h | Morningglory; Table II, 4 WAT, 5.6 kg/h | Soybean; 4 WAT, 0.28 kg/h | Soybean; 4 WAT, 1.12 kg/h | Wheat; 4 WAT, 1.12 kg/h | Smartweed; Table I, 4 WAT, 5.6 kg/h | Smartweed; Table I, 4 WAT, 11.2 kg/h | Smartweed; Table II, 4 WAT, 1.12 kg/h | Lambsquarters; Table II, 4 WAT, 1.12 kg/h | Velvetleaf; Table I, 4 WAT, 11.2 kg/h
4 (100% control): Panicum Spp; 4 WAT, 1.12 kg/h | Panicum Spp; 4 WAT, 5.6 kg/h | Crabgrass; 5.6 kg/h | Wheat; 4 WAT, 5.6 kg/h
3 (75-99% control): Sugar Beet; 4 WAT, 5.6 kg/h | Downy Brome; Table II, 4 WAT, 0.28 kg/h | Downy Brome; Table II, 4 WAT, 1.12 kg/h | Downy Brome; Table II, 4 WAT, 5.6 kg/h | Panicum Spp; 4 WAT, 0.28 kg/h | Hemp Sesbania; 4 WAT, 5.6 kg/h | Sorghum; 4 WAT, 5.6 kg/h | Cocklebur; Table II, 4 WAT, 5.6 kg/h | Crabgrass; 1.12 kg/h | Soybean; 4 WAT, 5.6 kg/h | Barnyardgrass; Table I, 4 WAT, 5.6 kg/h | Barnyardgrass; Table I, 4 WAT, 11.2 kg/h | Barnyardgrass; Table II, 4 WAT, 0.28 kg/h | Barnyardgrass; Table II, 4 WAT, 1.12 kg/h | Barnyardgrass; Table II, 4 WAT, 5.6 kg/h | Wheat; 4 WAT, 0.28 kg/h | Rice; 4 WAT, 0.28 kg/h | Rice; 4 WAT, 1.12 kg/h | Rice; 4 WAT, 5.6 kg/h | Smartweed; Table II, 4 WAT, 0.28 kg/h | Smartweed; Table II, 4 WAT, 5.6 kg/h | Lambsquarters; Table I, 4 WAT, 5.6 kg/h | Lambsquarters; Table I, 4 WAT, 11.2 kg/h | Lambsquarters; Table II, 4 WAT, 5.6 kg/h
